According to PubChem BioAssay AID1996:
Converted amounts (≈) assume the structure as drawn.

Details: buffer; pH 7.4; 200.0 µM

Row | SMILES | solubility kinetic [µg/mL]
1 | COc1cc(Cl)c(C)cc1NC(=O)CN(C)C1CCS(=O)(=O)C1 (configuration not stated) | > 54.1
2 | O=C(O)c1ccc(-c2cccc([N+](=O)[O-])c2)o1 | > 35
3 | [NH-]S(=O)(=O)c1ccccc1.[Na+] | > 26.9
4 | COc1ccc(-n2ccc(=O)c(C(=O)O)n2)cc1 | > 36.9
5 | O=C(N1CCCCC1)N1CCN(S(=O)(=O)c2ccccc2)CC1 | > 50.6
6 | Cc1cc(F)ccc1NC(=O)C1CCCO1 (configuration not stated) | 33.3 (≈ 149 µM)
7 | O=C(NN1CCOCC1)c1ccccc1F | > 33.6
8 | CCOC(=O)Cn1c(=O)oc2ccc(C)cc21 | > 35.3
9 | COc1cccc(CN(C)C(=O)Cc2c[nH]c3ccccc23)c1 | > 46.3
10 | Cl.c1cc(CNC23CC4CC(CC(C4)C2)C3)ccn1 | > 47.3
11 | COc1cc(NC(=O)Nc2cc(C)on2)cc(OC)c1OC | 37.8 (≈ 123 µM)
12 | COc1cccc(CNC(=O)CCCC(=O)NC(C)CCc2ccccc2)c1 (configuration not stated) | > 57.4
13 | COCCNC(=S)N1CCCC(CO)C1 (configuration not stated) | > 34.9
14 | Cc1cc(C(=O)O)ccc1NCc1cccnc1 | 36 (≈ 149 µM)
15 | CCOc1ccc(NC(=O)c2ccc(CN3CCc4ccccc4C3)cc2)cc1 | < 0.4
16 | O=C(Nc1ccc(F)cc1F)Nc1csc2ccccc12 | 0.6 (≈ 1.97 µM)
17 | CC1CCCN(C(=O)COC(=O)Cn2cnc3ccccc32)C1 (configuration not stated) | > 47.3
18 | O=C(Nc1ccncc1)c1ccc(Br)cc1 | > 41.6
19 | CC(C)[C@H](NC(=O)NC1CCN(Cc2ccccc2)CC1)C(=O)O | 19.8 (≈ 59.4 µM)
20 | CCOC(=O)N1CCN(CC(=O)c2ccc(O)cc2O)CC1 | > 46.3
21 | C#Cc1cccc(NC(=O)Cc2cccs2)c1 | > 36.2
22 | O=C(/C=C/c1cccc(F)c1)c1ccc(N2CCOCC2)cc1 | 5.8 (≈ 18.6 µM)

Row | SMILES | solubility kinetic [µg/mL]
23 | CCOc1ncccc1C(=O)NC(C)CCc1ccccc1 (configuration not stated) | 41 (≈ 137 µM)
24 | O=C(CSc1nc2ccccc2[nH]1)NCc1ccc(F)cc1 | > 47.3
25 | O=C(O)c1ccccc1Sc1ncnc2sccc12 | > 43.3
26 | O=S(=O)(c1ccc(F)cc1)N1CCN(c2ccc(F)cc2)CC1 | 0.5 (≈ 1.48 µM)
27 | Nc1cc(=O)[nH]c(SCC(=O)Nc2cc([N+](=O)[O-])ccc2Cl)n1 | 4.4 (≈ 12.4 µM)
28 | COC(=O)C1CCN(C(=O)COC(=O)/C=C/c2ccc(O)c(OC)c2)CC1 | > 56.6
29 | Cc1cccc(NC(=O)CSc2nc3ccccc3c(=O)n2CC2CCCO2)c1 (configuration not stated) | 4.2 (≈ 10.3 µM)
30 | Cc1ccc([N+](=O)[O-])cc1NC(=O)Cc1ccc(F)cc1 | < 0.3
31 | COc1cc(-c2cc(C(=O)Nc3cc(S(=O)(=O)N4CCOCC4)ccc3O)c3ccccc3n2)cc(OC)c1OC | 3.3 (≈ 5.69 µM)
32 | O=C1NC(=O)N(Cc2ccc(F)cc2)C(=O)/C1=C\C=C\c1ccco1 | 10 (≈ 29.4 µM)
33 | O=C(O)COCC(=O)Nc1cc(C(F)(F)F)cc(C(F)(F)F)c1 | > 51.8
34 | O=C(NC1CCS(=O)(=O)C1)c1cccnc1 (configuration not stated) | 26.1 (≈ 109 µM)
35 | COc1ccc(C(=O)CCC(=O)Nc2cccc(Cl)c2)cc1 | 3.4 (≈ 10.7 µM)
36 | Clc1ccc(N=c2ssnc2Cl)nc1 | 1 (≈ 3.79 µM)
37 | O=C(c1cc(S(=O)(=O)N2CCOCC2)ccc1F)N1CCc2ccccc21 | > 58.6
38 | O=C(CN1CCCC1)Nc1ccccc1Sc1ccc(Cl)cc1 | 8.6 (≈ 24.8 µM)
39 | COc1ccc(S(=O)(=O)Nc2cc3[nH]c(=O)oc3cc2C)cc1 | > 50.2
40 | O=C(NC1CCCC1)C1CCN(C(=O)NCc2ccccc2)CC1 | > 49.4
41 | Cc1ccc(NC(=O)c2sc(C)nc2C)c(C)c1 | > 39.1
42 | C(=C\c1nc(-c2cccnc2)no1)/c1ccccc1 | 3.4 (≈ 13.6 µM)
43 | COc1cccc(C(=O)Nc2ccncc2)c1OC | > 38.7
44 | O=C(CC(Cc1ccccc1)C(=O)O)Nc1ccc(F)cc1 (configuration not stated) | > 45.2

Row | SMILES | solubility kinetic [µg/mL]
45 | COc1ccc(CN2CC[C@@H](N3CCOCC3)[C@H](O)C2)cc1F | 43.3 (≈ 133 µM)
46 | Cc1ccc(NC(=O)CC2SCCNC2=O)cc1[N+](=O)[O-] (configuration not stated) | 36.2 (≈ 117 µM)
47 | Cc1nc(-c2ccccn2)nc(SCC(=O)c2ccc(F)cc2)c1Cl | 2.4 (≈ 6.42 µM)
48 | O=C(Nc1ccccc1C(=O)Nc1ccc(Cl)cc1)c1cccnc1 | 0.6 (≈ 1.71 µM)
49 | COc1ccc2[nH]c(C(=O)NCCc3ccccc3)cc2c1 | 1 (≈ 3.4 µM)
50 | COc1ccc(C2(CNC(=O)c3cccs3)CCOCC2)cc1 | 48.6 (≈ 147 µM)
51 | COc1ccc(CNC(=O)CSc2nc3ccccc3n2C(C)=O)cc1 | 21.2 (≈ 57.4 µM)
52 | CNC(=O)COC(=O)CCC(=O)c1cccs1 | 31.6 (≈ 124 µM)
53 | Cc1ccc2c(Cl)cc(Cl)c(OCC(=O)NC(C)(C)C)c2n1 | 10 (≈ 29.3 µM)
54 | CCC(CC)C(=O)c1c[nH]c(C(=O)NCc2ccccn2)c1 | > 44.9
55 | Cn1c(=NC(=O)C(C)(C)C)sc2cccc(F)c21 | 1 (≈ 3.75 µM)
56 | Cc1ccc(C(=O)O)cc1NC(=O)CSc1nnc(-c2ccccc2F)n1C1CCCCC1 | > 70.3
57 | CC(C)C1CC(C(=O)Nc2ccccc2)C(=O)O1 (configuration not stated) | 34.9 (≈ 141 µM)
58 | O=C(NCc1cccnc1)Nc1ccc(Cl)cc1 | > 39.3
59 | CC(=O)c1ccc(N2CCCCC2)c(F)c1 | 12.1 (≈ 54.7 µM)
60 | O=C(COc1ccccc1)NC1CCS(=O)(=O)C1 (configuration not stated) | > 40.4
61 | Cc1ccc(C(=O)OCC(=O)NCc2ccc(F)cc2)o1 | > 43.7
62 | CN1CC(=O)Nc2ccccc2C1=O | > 28.5
63 | COc1ccc(N2CC(C(=O)N3CCOCC3)CC2=O)cc1 (configuration not stated) | > 45.7
64 | C/C(=N\O)C(C)(C)Nc1ccc(Cl)cc1 | 32.1 (≈ 142 µM)
65 | O=C(CNS(=O)(=O)c1ccc(F)c(Cl)c1)N1CCCC1 | 44.1 (≈ 137 µM)
66 | CN1C(=O)CSC1=Nc1cccc(C(=O)O)c1 | > 37.5

Row | SMILES | solubility kinetic [µg/mL]
67 | CNC(=S)N1CCC(NC(=O)c2ccco2)CC1 | > 40.1
68 | CCc1cccc(NC(=O)C2CCN(c3ncnc4sc(C)c(C)c34)CC2)c1 | 2.7 (≈ 6.84 µM)
69 | CCCCn1c(CCNC(=O)c2ccco2)nc2ccccc21 | > 46.7
70 | CCOC(=O)CN1C(=O)C(=O)N(Cc2ccccc2F)C1=O | > 46.2
71 | Cc1cc(N2CCCCC2)nc2c(C)cccc12 | < 0.3
72 | COc1ccc(CCNC(=O)COC(=O)c2cnc(Cl)c(Cl)c2)cc1 | 5.4 (≈ 14.1 µM)
73 | S=C(NCc1ccccc1)NCc1ccco1 | 28.2 (≈ 114 µM)
74 | Cc1ccc(NC(=O)CNC(C)c2ccccc2)cc1.Cl (configuration not stated) | > 45.7
75 | O=C(c1ccc2ncsc2c1)N1CCCCC1 | > 36.9
76 | Cl.O=C(O)c1ccc(Nc2ncnc3ccccc23)cc1 | > 45.3
77 | CCCN1C2CCCC1CC(NC(=O)c1ccccc1OC)C2 (configuration not stated) | > 47.5
78 | CC(=O)Nc1ccc(Oc2nc(-c3ccccn3)nc3ccccc23)cc1 | 6.8 (≈ 19.1 µM)
79 | N#Cc1cn(Cc2ccccc2)c(=O)[nH]c1=O | > 34.1
80 | COC(=O)c1cn(S(=O)(=O)c2ccccc2)c2ccccc12 | 2 (≈ 6.34 µM)
81 | O=C(/C(=C/c1cccnc1)n1ccnc1)c1ccc(Cl)cc1Cl | > 51.6
82 | CCCn1c(C(=O)c2ccc(OC)cc2)nc2ccccc21 | 1.7 (≈ 5.78 µM)
83 | O=C(CCc1nc2ccccc2c(=O)[nH]1)N1CCN(c2ccccc2Cl)CC1 | 3.2 (≈ 8.06 µM)
84 | CC(=O)c1ccc(S(=O)(=O)N2CCN(CC#N)CC2)cc1 | 45.8 (≈ 149 µM)
85 | Cc1ccc2nc(-c3ccccc3C)oc(=O)c2c1 | < 0.5
86 | O=C(NCCc1ccc(C(F)(F)F)cc1)c1ccc(Cl)nc1 | 6.6 (≈ 20.1 µM)
87 | Cc1ncc([N+](=O)[O-])n1CC(=O)Nc1ccc(Cl)cc1 | 5.7 (≈ 19.3 µM)
